Laboratory results published in PMC10254657, “Efficient pH-Responsive Nano-Drug Delivery System Based on Dynamic Boronic Acid/Ester Transformation” (Molecules, 2023).

How the values were obtained:
DU145 cells = assay: In vitro cytotoxicity by MTT assay; type: cell-based; conditions: Homo sapiens, DU-145, 24 h (Figure 5 legend) / 48 h (method), read-out: half-maximal inhibitory concentrations (IC50)
Procedure: Human prostate cancer cells (DU145) were cultivated in DMEM supplemented with fetal bovine serum (FBS, 10%), streptomycin (100 μg/mL), and penicillin (100 units/mL). The cells were incubated in a humid atmosphere with 5% CO2 at 37 °C.
The in vitro cytotoxicities of PTX-loaded NPs were measured by MTT assays. Cells were seeded in 96-well plates (5000–8000 cells per well) and incubated at 37 °C. After 24 h, the medium was replaced with 180 μL of fresh medium, and the cells were treated with serial dilutions of PTX/PBA NPs, PTX/mPEG-PAL NPs, blank PBA NPs, and blank mPEG-PAL NPs (20 μL) for 48 h at 37 °C. At the end of the incubation, to each well was added […] of MTT solution (5 mg/mL in PBS). After 4 h, the MTT solution was removed from the wells, followed by the addition of supplementary DMSO (100 μL) to dissolve the purple MTT formazan crystals. The absorbance of each well was determined at 490 nm on a microplate reader (Flexstation 3, Molecular Devices LLC, Sunnyvale, CA, USA).

[1] = In vivo pharmacokinetics after intravenous administration; conditions: ICR mice
Procedure: Pharmacokinetics was evaluated in ICR mice (about 20 g). […] A total of 0.1 mL of fresh blood was collected through orbital at appropriate intervals, put into a centrifuge tube pretreated with heparin sodium, and centrifugated (5000 rpm, 10 min). A total of 100 µL acetonitrile was added to 50 µL of supernatant collected to extract PTX and precipitate protein in serum, and the mixture was centrifugated for another 10 min (1200 rpm). The amounts of PTX in the collected supernatant were determined by HPLC (acetonitrile:water = 50:50 (v:v); flow rate: 1.0 mL/min; wavelength: 227 nm).

human DU145 tumor model = conditions: 7.5 mg/kg i.v. on days 0, 3 and 6
Procedure: (§1) BALB/c nude mice (4–5 weeks old) were used for the evaluation of the antitumor activities of the nanotherapies. The human prostate cancer cell line DU145 was grown to 80% confluence in 90 mm tissue culture dishes. After cell harvesting, the cells were resuspended in PBS at 4 °C to reach a final concentration of 1.5 × 10^7 cells/mL. The right flanks of the BALB/c nude mice were subcutaneously injected with 200 μL of a cell suspension containing 3 × 10^6 cells. At 4 days after implantation, the tumors reached approximately 150 mm^3 in volume, and then the mice were randomly divided into four groups (n = 6 mice per group). Mice bearing DU145 tumor xenografts were injected intravenously with PBS, Taxol, PTX/PBA NPs, and PTX/mPEG-PAL NPs at 7.5 mg/kg three times on days 0, 3, and 6. Tumor volumes and body weights were monitored and recorded once every three days. The lengths (L) and widths (W) of the tumors were measured with calipers, and the tumor volume was calculated by the following formula: V = (L × W^2)/2, where W is shorter than L.

DU145 tumor xenografts = assay: TUNEL assay of the tumors; type: in vivo, BALB/c nude mice; conditions: compared with PBS; tumors excised at 15 d
From the text: The tumor tissue and other organs from the sacrificed mice were excised at 15 d of the treatments with various drugs. After being fixed in n 4% formaldehyde, dehydrated with ethanol, and embedded in paraffin, the tumor tissue and organs were further sectioned into 5 μm slices for hematoxylin and eosin (H&E) staining and the terminal deoxynucleotidyl transferase-mediated dUTP nick-end labeling (TUNEL) staining assay. The H&E-stained tissues and TUNEL-stained tissues were imaged by fluorescence microscopy (NIKON ECLIPSE C1, Tokyo, Japan).

[2] = Body weight of tumor-bearing mice during treatment; type: in vivo, BALB/c nude mice; conditions: 7.5 mg/kg i.v. on days 0, 3 and 6
Procedure: as §1

- t1/2α [1]: 3.24 min
- AUC(0-inf) ([1]; mouse, plasma): 85.4 ng·h/mL
- AUC(0-t) ([1]; mouse, plasma): 67.5 ng·h/mL
- Cmax ([1]; mouse, plasma): 94.6 ng/mL
- half-life ([1]; mouse, plasma, read-out: t1/2β (converted)): 26 min
SMILES: CC(=O)O[C@H]1C(=O)[C@@]2(C)[C@H]([C@H](OC(=O)c3ccccc3)[C@]3(O)C[C@H](OC(=O)[C@H](O)[C@@H](NC(=O)c4ccccc4)c4ccccc4)C(C)=C1C3(C)C)[C@]1(OC(C)=O)CO[C@@H]1C[C@@H]2O [Taxol, Paclitaxel]
- IC50 (DU145 cells): 3.04 nM
- therapeutic efficacy (tumor photograph and weight at the end of treatment) (human DU145 tumor model; end of treatment): better therapeutic efficacy than PBS
- tumor growth (tumor volume) (human DU145 tumor model; first 6 days): completely inhibited
- cell apoptosis rate in tumors (TUNEL) (DU145 tumor xenografts): dramatic increase
- body weight of mice [2]: remained almost unchanged in the first 9 days and then showed a slow uptrend
